Test results published in patent publication US9133183B2, “Imidazolidinones and analogs exhibiting anti-cancer and anti-proliferative activities” (Deciphera Pharmaceuticals, LLC, priority 2013, dated 2015).

How the values were obtained:
osteoclast precursors = assay: Osteoclast tartrate-resistant acid phosphatase assay; assay type: cell-based; conditions: 7-14 days, RANKL and M-CSF
Procedure: Osteoclast Tartrate-Resistant Acid Phosphatase Assay
A serial dilution of test compound was dispensed into a 384-well black clear bottom plate (Nalge Nunc International, Rochester, N.Y.). Compound was diluted by the addition of DMEM media supplemented with 10% characterized fetal bovine serum (Invitrogen, Carlsbad, Calif.). Diluted compound was transferred to a 384-well black clear bottom plate. Two-thousand five hundred osteoclast precursors (Lonza, Walkersville, Md.) were added per well in growth media containing Receptor Activator of Nuclear Factor Kappa-beta ligand (RANKL) and M-CSF (R&D Systems, Minneapolis, Minn.). Plates were incubated for 7-14 days at 37 degrees Celsius, 5% CO2, and 95% humidity to allow differentiation of osteoclast precursors. At the end of the incubation period, 10 μL of supernatant from each well was transferred to a clear 384-well plate. Tartrate-resistant acid phosphatase activity in the supernatant samples was determined using an acid phosphatase assay kit (Sigma, St. Louis, Mo.). Absorbance was measured at 550 nm using a plate reader. Data was analyzed using Prism software (Graphpad, San Diego, Calif.) to calculate IC50 values.

[1] = target: unphosphorylated PDGFRβ kinase (uPDGFRβ, Seq. ID No. 3) (Homo sapiens (Human), UniProt P09619); assay: Unphosphorylated PDGFRβ kinase assay (coupled pyruvate kinase/lactate dehydrogenase); assay type: biochemical; conditions: enzymatic assay, ATP 500 μM
Sequence of unphosphorylated PDGFRβ kinase (uPDGFRβ, Seq. ID No. 3) (P09619 557-1106): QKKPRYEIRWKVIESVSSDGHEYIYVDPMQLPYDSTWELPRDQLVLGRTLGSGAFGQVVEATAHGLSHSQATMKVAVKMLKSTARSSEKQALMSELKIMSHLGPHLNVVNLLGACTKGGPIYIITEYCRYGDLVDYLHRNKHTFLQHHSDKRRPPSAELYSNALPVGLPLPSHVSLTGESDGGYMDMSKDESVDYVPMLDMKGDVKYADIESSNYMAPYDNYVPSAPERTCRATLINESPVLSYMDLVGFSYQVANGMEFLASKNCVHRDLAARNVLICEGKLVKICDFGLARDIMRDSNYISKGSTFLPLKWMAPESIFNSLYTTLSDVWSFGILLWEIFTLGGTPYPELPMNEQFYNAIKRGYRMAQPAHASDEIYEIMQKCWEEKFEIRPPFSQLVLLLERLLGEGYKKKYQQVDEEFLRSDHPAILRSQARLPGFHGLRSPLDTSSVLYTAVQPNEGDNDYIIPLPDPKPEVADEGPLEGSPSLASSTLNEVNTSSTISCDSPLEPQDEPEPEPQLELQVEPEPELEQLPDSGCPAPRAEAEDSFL
Procedure: Unphosphorylated PDGFRβ (uPDGFRβ) Kinase (Seq. ID No. 3) Assay
Activity of unphosphorylated PDGFRβ kinase (uPDGFRβ, Seq. ID No. 3) was determined by following the production of ADP from the kinase reaction with ATP and poly E4Y as substrates through coupling with the pyruvate kinase/lactate dehydrogenase system (e.g., Schindler et al. Science (2000) 289: 1938-1942). In this assay, the oxidation of NADH (thus the decrease at A340 nm) was continuously monitored spectrophometrically. The reaction mixture (100 μL) contained PDGFRβ (DeCode, 15.7 nM), polyE4Y (2.5 mg/mL), MgCl2 (10 mM), pyruvate kinase (4 units), lactate dehydrogenase (0.7 units), phosphoenol pyruvate (1 mM) and NADH (0.28 mM) and ATP (500 μM) in a 90 mM Tris buffer containing 0.2% octyl-glucoside and 1% DMSO, at pH 7.5. The inhibition reaction was started by mixing serial diluted test compound with the above reaction mixture. The absorption at 340 nm was monitored continuously for 4 h at 30° C. on a Polarstar Optima or Synergy 2 plate reader. The reaction rate was calculated using the 1.5 to 2.5 h time frame. Percent inhibition was obtained by comparison of reaction rate with that of a control (i.e., with no test compound). IC50 values were calculated from a series of percent inhibition values determined at a range of inhibitor concentrations using software routines as implemented in the GraphPad Prism software package.
uPDGFRβ Kinase Sequence (Residues 557-1106) Used for Screening (Seq ID No. 3)

[2] = target: unphosphorylated c-FMS kinase (uFMS, Seq. ID no. 1) (Homo sapiens (Human), UniProt P07333); assay: uFMS kinase assay (ADP production coupled to pyruvate kinase/lactate dehydrogenase); assay type: biochemical; conditions: enzymatic assay, ATP 500 μM; read-out: uFMS
Sequence of unphosphorylated c-FMS kinase (uFMS, Seq. ID no. 1) (P07333 538-972): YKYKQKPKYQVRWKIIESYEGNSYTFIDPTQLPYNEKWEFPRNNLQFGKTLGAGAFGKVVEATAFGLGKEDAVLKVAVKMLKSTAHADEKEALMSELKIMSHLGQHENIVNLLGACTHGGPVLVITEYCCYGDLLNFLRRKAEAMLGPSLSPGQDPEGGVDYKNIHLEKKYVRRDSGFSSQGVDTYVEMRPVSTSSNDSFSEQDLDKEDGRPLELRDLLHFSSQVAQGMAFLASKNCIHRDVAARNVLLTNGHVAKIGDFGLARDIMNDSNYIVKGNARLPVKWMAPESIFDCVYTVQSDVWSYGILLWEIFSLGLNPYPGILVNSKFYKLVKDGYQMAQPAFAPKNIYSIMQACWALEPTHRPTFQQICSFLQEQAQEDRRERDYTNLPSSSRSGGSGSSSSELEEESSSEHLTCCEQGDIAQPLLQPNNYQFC
Procedure: uFMS kinase (Seq. ID No. 1) Assay
In this assay, the oxidation of NADH (thus the decrease at A340 nm) was continuously monitored spectrophometrically. The reaction mixture (100 μL) contained FMS (purchased from Millipore) (10 nM), polyE4Y (1 mg/mL), MgCl2 (10 mM), pyruvate kinase (4 units), lactate dehydrogenase (0.7 units), phosphoenol pyruvate (1 mM), NADH (0.28 mM) and ATP (500 μM) in 90 mM Tris buffer containing 0.2% octyl-glucoside and 1% DMSO, pH 7.5. The inhibition reaction was started by mixing serial diluted test compound with the above reaction mixture. The absorption at 340 nm was monitored continuously for 4 hours at 30° C. on Synergy 2 plate reader. The reaction rate was calculated using the 3 to 4 h time frame. Percent inhibition was obtained by comparison of reaction rate with that of a control (i.e., in the absence of test compound). IC50 values were calculated from a series of percent inhibition values determined at a range of inhibitor concentrations using software routines as implemented in the GraphPad Prism software package.
uFMS Kinase Sequence (Y538-End) Used for Screening (Seq. ID No. 1)

M-NFS-60 cells = assay: M-NFS-60 cell proliferation assay (resazurin); assay type: cell-based; conditions: 67 h incubation
Procedure: M-NFS-60 cells (catalog #CRL-1838) were obtained from the American Type Culture Collection (ATCC, Manassas, Va.). Briefly, cells were grown in suspension in RPMI 1640 medium supplemented with 10% characterized fetal bovine serum (Invitrogen, Carlsbad, Calif.), 0.05 mM 2-mercaptoethanol, and 20 ng/mL mouse recombinant macrophage colony stimulating factor (M-CSF) at 37° C., 5% CO2, and 95% humidity. Cells were allowed to expand until reaching saturation at which point they were subcultured or harvested for assay use.
M-NFS-60 Cell Proliferation Assay
A serial dilution of test compound was dispensed into a 384-well black clear bottom plate (Corning, Corning, N.Y.). Two thousand five hundred cells were added per well in 50 μL complete growth medium. Plates were incubated for 67 h at 37° C., 5% CO2, and 95% humidity. At the end of the incubation period 10 μL of a 440 μM solution of resazurin (Sigma, St. Louis, Mo.) in PBS was added to each well and incubated for an additional 5 h at 37° C., 5% CO2, and 95% humidity. Plates were read on a Synergy2 reader (Biotek, Winooski, Vt.) using an excitation of 540 nm and an emission of 600 nm. IC50 values were calculated from a series of percent inhibition values determined at a range of inhibitor concentrations using software routines as implemented in the GraphPad Prism software package.

[3] = target: unphosphorylated c-KIT kinase (uKIT, Seq. ID no. 2) (Homo sapiens (Human), UniProt P10721); assay: uKit kinase assay (coupled pyruvate kinase/lactate dehydrogenase); assay type: biochemical; conditions: enzymatic assay, ATP 2000 μM
Sequence of unphosphorylated c-KIT kinase (uKIT, Seq. ID no. 2) (P10721 other isoform, or with tags, fused parts or gaps): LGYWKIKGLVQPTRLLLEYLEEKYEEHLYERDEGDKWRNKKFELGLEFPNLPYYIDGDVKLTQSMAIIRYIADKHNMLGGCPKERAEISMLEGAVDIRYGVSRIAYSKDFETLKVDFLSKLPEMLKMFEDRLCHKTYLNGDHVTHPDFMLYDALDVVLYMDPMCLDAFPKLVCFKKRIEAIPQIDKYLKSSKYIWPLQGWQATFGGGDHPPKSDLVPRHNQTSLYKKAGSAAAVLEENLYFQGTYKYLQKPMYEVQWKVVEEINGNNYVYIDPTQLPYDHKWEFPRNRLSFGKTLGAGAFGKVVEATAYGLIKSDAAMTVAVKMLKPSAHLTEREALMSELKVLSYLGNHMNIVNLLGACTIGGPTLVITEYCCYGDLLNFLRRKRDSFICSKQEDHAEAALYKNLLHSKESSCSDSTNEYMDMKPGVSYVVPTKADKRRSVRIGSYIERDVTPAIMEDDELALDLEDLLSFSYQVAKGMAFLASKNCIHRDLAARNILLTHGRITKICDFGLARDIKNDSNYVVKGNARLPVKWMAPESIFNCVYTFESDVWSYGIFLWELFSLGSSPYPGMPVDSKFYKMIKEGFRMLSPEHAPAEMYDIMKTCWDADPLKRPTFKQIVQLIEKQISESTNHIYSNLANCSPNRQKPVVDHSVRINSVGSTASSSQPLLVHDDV
Procedure: uKit Kinase (Seq. ID No. 2) Assay
Activity of unphosphorylated c-KIT kinase (uKIT, Seq. ID no. 2) was determined by following the production of ADP from the KIT kinase reaction with ATP and poly E4Y as substrates through coupling with the pyruvate kinase/lactate dehydrogenase system (e.g., Schindler et al. Science (2000) 289: 1938-1942). In this assay, the oxidation of NADH (thus the decrease at A340 nm) was continuously monitored spectrophometrically. The reaction mixture (100 μl) contained unphosphorylated KIT (12 nM), polyE4Y (1 mg/mL), MgCl2 (10 mM), pyruvate kinase (4 units), lactate dehydrogenase (0.7 units), phosphoenol pyruvate (1 mM), and NADH (0.28 mM) and ATP (2000 μM) in 90 mM Tris buffer containing 0.2% octyl-glucoside and 1% DMSO, pH 7.5. The inhibition reaction was started by mixing serial diluted test compound with the above reaction mixture. The absorption at 340 nm was monitored continuously for 4 hours at 30° C. on Synergy 2 plate reader (BioTech). Reaction rates around 3 to 4 h time frame were used to calculate % inhibitions, from which IC50 values were generated.
uKit with N-Terminal GST Fusion Used for Screening (Seq ID No. 2)

Q: Cn1cc(-c2cc(Oc3cc(F)c(NC(=O)N4CCN(CCOC(F)(F)F)C4=O)cc3Cl)ccn2)cn1 [Example 106, N-(5-chloro-2-fluoro-4-((2-(1-methyl-1H-pyrazol-4-yl)pyridin-4-yl)oxy)phenyl)-2-oxo-3-(2-(trifluoromethoxy)ethyl)imidazolidine-1-carboxamide] was tested. Which IC50 (osteoclast precursors; Osteoclast) did it give?
A: 100 to 1000 nM

Q: And the IC50 [1]?
A: > 1000 nM

Q: What about the IC50 [2] of the same compound?
A: 10 to 100 nM

Q: What about the IC50 (M-NFS-60 cells) of the same compound?
A: > 1000 nM

Q: For Cn1cc(-c2cc(Oc3ccc(NC(=O)N4CCN([C@@H]5CCOC5)C4=O)nc3)ccn2)cn1 [Example 27, (R)—N-(5-((2-(1-methyl-1H-pyrazol-4-yl)pyridin-4-yl)oxy)pyridin-2-yl)-2-oxo-3-(tetrahydrofuran-3-yl)imidazolidine-1-carboxamide], which IC50 (osteoclast precursors) is on record?
A: < 10 nM

Q: And the IC50 [1]?
A: > 1000 nM

Q: What about the IC50 [2] of the same compound?
A: < 10 nM

Q: What about the IC50 (M-NFS-60 cells) of the same compound?
A: 10 to 100 nM

Q: For COC(C)(C)CCN1CCN(C(=O)Nc2cc(Cl)c(Oc3ccnc(-c4cnn(C)c4)c3)cc2F)C1=O [Example 108, N-(5-chloro-2-fluoro-4-((2-(1-methyl-1H-pyrazol-4-yl)pyridin-4-yl)oxy)phenyl)-3-(3-methoxy-3-methylbutyl)-2-oxoimidazolidine-1-carboxamide], which IC50 (osteoclast precursors; Osteoclast) is on record?
A: 100 to 1000 nM

Q: What about the IC50 [1] of the same compound?
A: > 1000 nM

Q: What about the IC50 [2] of the same compound?
A: 10 to 100 nM

Q: What about the IC50 (M-NFS-60 cells) of the same compound?
A: 100 to 1000 nM

Q: Cn1cc(-c2cc(Oc3cc(F)c(NC(=O)N4CCN(C5COC5)C4=O)cc3Cl)ccn2)cn1 [Example 104, N-(5-chloro-2-fluoro-4-((2-(1-methyl-1H-pyrazol-4-yl)pyridin-4-yl)oxy)phenyl)-3-(oxetan-3-yl)-2-oxoimidazolidine-1-carboxamide] was tested. Which IC50 (osteoclast precursors; Osteoclast) did it give?
A: 100 to 1000 nM

Q: What about the IC50 [1] of the same compound?
A: > 1000 nM

Q: And the IC50 [2]?
A: 100 to 1000 nM

Q: What about the IC50 (M-NFS-60 cells) of the same compound?
A: > 1000 nM

Q: Cn1cc(-c2cc(Oc3cc(F)c(NC(=O)N4CCN(C5CCC(F)(F)CC5)C4=O)cc3Cl)ccn2)cn1 [Example 110, N-(5-chloro-2-fluoro-4-((2-(1-methyl-1H-pyrazol-4-yl)pyridin-4-yl)oxy)phenyl)-3-(4,4-difluorocyclohexyl)-2-oxoimidazolidine-1-carboxamide] was tested. Which IC50 [1] did it give?
A: > 1000 nM

Q: And the IC50 [2]?
A: < 10 nM

Q: What about the IC50 (M-NFS-60 cells) of the same compound?
A: 10 to 100 nM

Q: Which results are given for Cn1cc(-c2cc(Oc3cc(F)c(NC(=O)N4CCN(C5CCCCC5)C4=O)cc3Cl)ccn2)cn1 [Example 107, N-(5-chloro-2-fluoro-4-((2-(1-methyl-1H-pyrazol-4-yl)pyridin-4-yl)oxy)phenyl)-3-cyclohexyl-2-oxoimidazolidine-1-carboxamide]?
A: IC50 (osteoclast precursors; Osteoclast): 10 to 100 nM; IC50 [1]: 100 to 1000 nM; IC50 [2]: < 10 nM; IC50 (M-NFS-60 cells): 10 to 100 nM

Q: How did the IC50 (osteoclast precursors; Osteoclast) turn out when COCCCN1CCN(C(=O)Nc2cc(Cl)c(Oc3ccnc(-c4cnn(C)c4)c3)cc2F)C1=O [Example 103, N-(5-chloro-2-fluoro-4-((2-(1-methyl-1H-pyrazol-4-yl)pyridin-4-yl)oxy)phenyl)-3-(3-methoxypropyl)-2-oxoimidazolidine-1-carboxamide] was run?
A: 100 to 1000 nM

Q: And the IC50 [1]?
A: > 1000 nM

Q: What about the IC50 [2] of the same compound?
A: 10 to 100 nM

Q: And the IC50 (M-NFS-60 cells)?
A: 100 to 1000 nM

Q: COC[C@H](C)N1CCN(C(=O)Nc2cc(Cl)c(Oc3ccnc(-c4cnn(C)c4)c3)cc2F)C1=O [Example 105, (S)—N-(5-chloro-2-fluoro-4-((2-(1-methyl-1H-pyrazol-4-yl)pyridin-4-yl)oxy)phenyl)-3-(1-methoxypropan-2-yl)-2-oxoimidazolidine-1-carboxamide] was tested. Which IC50 (osteoclast precursors; Osteoclast) did it give?
A: 10 to 100 nM

Q: What about the IC50 [1] of the same compound?
A: > 1000 nM

Q: What about the IC50 [2] of the same compound?
A: 10 to 100 nM

Q: What about the IC50 (M-NFS-60 cells) of the same compound?
A: 100 to 1000 nM

Q: Which results are given for Cn1cc(-c2cc(Oc3cc(F)c(NC(=O)N4CCN(C5CCCC5)C4=O)cc3Cl)ccn2)cn1 [Example 111, N-(5-chloro-2-fluoro-4-((2-(1-methyl-1H-pyrazol-4-yl)pyridin-4-yl)oxy)phenyl)-3-cyclopentyl-2-oxoimidazolidine-1-carboxamide]?
A: IC50 (osteoclast precursors; Osteoclast): < 10 nM; IC50 [1]: > 1000 nM; IC50 [2]: < 10 nM; IC50 (M-NFS-60 cells): 10 to 100 nM

Q: Which results are given for Cc1nc(NC(=O)N2CC(C)(C)N(C3CCCCC3)C2=O)ccc1Oc1ccnc(-c2cnn(C)c2)c1 [Example 32, 3-cyclohexyl-4,4-dimethyl-N-(6-methyl-5-((2-(1-methyl-1H-pyrazol-4-yl)pyridin-4-yl)oxy)pyridin-2-yl)-2-oxoimidazolidine-1-carboxamide]?
A: IC50 [1]: > 1000 nM; IC50 [2]: 100 to 1000 nM; IC50 [3]: 100 to 1000 nM

Q: Which IC50 (osteoclast precursors; Osteoclast) does the source give for Cc1cc(-c2cc(Oc3ccc(NC(=O)N4CCN(C5CCOCC5)C4=O)nc3C)ccn2)ccn1 [Example 87, N-(6-methyl-5-((2′-methyl-[2,4′-bipyridin]-4-yl)oxy)pyridin-2-yl)-2-oxo-3-(tetrahydro-2H-pyran-4-yl)imidazolidine-1-carboxamide] here?
A: 10 to 100 nM

Q: What about the IC50 [2] of the same compound?
A: < 10 nM

Q: What about the IC50 [3] of the same compound?
A: 10 to 100 nM

Q: And the IC50 (M-NFS-60 cells)?
A: 10 to 100 nM

Q: Which results are given for CCc1nc(NC(=O)N2CCN(C3CCOCC3)C2=O)ccc1Oc1ccnc(-c2ccnc(C)c2)c1 [Example 64, N-(6-ethyl-5-((2′-methyl-[2,4′-bipyridin]-4-yl)oxy)pyridin-2-yl)-2-oxo-3-(tetrahydro-2H-pyran-4-yl)imidazolidine-1-carboxamide]?
A: IC50 (osteoclast precursors; Osteoclast): > 1000 nM; IC50 [2]: 100 to 1000 nM; IC50 [3]: > 1000 nM; IC50 (M-NFS-60 cells): > 1000 nM
